# Patent US5827245A, “Transdermal therapeutic system comprising the active subtance 17-β-Estradiol (Anhydrous)” (LTS Lohmann Therapie-Systeme GmbH & Co. KG, priority 1992, dated 1998)
# Legend:
# [1] = Thermal stability / conversion of 17-β-estradiol semihydrate to the anhydrous form; format: physicochemical
# Procedure: At room temperature and usual relative humidity of air (20 to 60% relative humidity), 17-β-estradiol is not present in one of the two known modifications (I and II) which are free from crystal water but as a semihydrate (Busetti a. Hospital, Acta Cryst. 1972, B28, 560). Due to the stratified structure of the crystal compound, which is stabilized by hydrogen bridges, and its diffusion density, the hydrate can be heated for a short period of time to temperatures of about 170° C. (Kuhnert-Brandstatter u. Winkler (1976) Scientia Pharmaceutica 44 (3), 177-190) while remaining undecomposed. However, by way of micronization, i.e. increasing the surface of the crystals, it is possible to quantitatively convert 17-β-estradiol semihydrate to its anhydrous form at as low a temperature as about 120° C. According to our own observations, conversion already occurs at about 90° C. where heating is slow (0.2 to 1 K/min) and particularly fine material is used.
# [2] = short period of time; cited from earlier work
smiles,measurement,setting,value
C[C@]12CC[C@@H]3c4ccc(O)cc4CC[C@H]3[C@@H]1CC[C@@H]2O [17-β-estradiol semihydrate],temperature of quantitative conversion to the anhydrous form,[1]; micronized,about 120 °C
same,temperature at which conversion already occurs,"[1]; slow heating (0.2 to 1 K/min), particularly fine material, own observations",about 90 °C
same,temperature to which the hydrate can be heated while remaining undecomposed,[2],about 170 °C
